The values below come from PMC3391414 (Journal of Agricultural and Food Chemistry, 2011).

For data set [1] the following is noted: cited from earlier work.
The target of another data set is T1, UGT1A6 (Homo sapiens, UniProt P19224).
T1 sequence (P19224 27-532): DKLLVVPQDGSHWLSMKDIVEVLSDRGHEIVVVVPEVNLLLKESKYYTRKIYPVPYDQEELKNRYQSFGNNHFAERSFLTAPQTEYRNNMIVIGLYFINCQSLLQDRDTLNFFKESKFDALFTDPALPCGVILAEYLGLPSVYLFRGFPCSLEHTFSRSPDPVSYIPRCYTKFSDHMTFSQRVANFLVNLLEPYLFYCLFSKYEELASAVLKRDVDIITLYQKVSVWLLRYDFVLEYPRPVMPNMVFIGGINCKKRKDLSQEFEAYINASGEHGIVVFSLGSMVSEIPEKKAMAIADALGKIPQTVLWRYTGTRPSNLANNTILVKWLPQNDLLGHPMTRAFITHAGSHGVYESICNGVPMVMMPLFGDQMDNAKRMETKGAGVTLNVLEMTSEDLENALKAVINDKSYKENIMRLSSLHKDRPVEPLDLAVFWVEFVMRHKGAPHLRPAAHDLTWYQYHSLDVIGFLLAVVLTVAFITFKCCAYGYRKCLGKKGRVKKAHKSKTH
The data set can be described thus: Glucuronidation by recombinant human UGT1A6. Conditions: UGT1A6, substrate 10 μM.

Data set [2] relates to UGT 1A1, 1A3, 1A6, 1A7, 1A8, 1A9, 1A10 and 2B7. Briefly: Glucuronidation by the panel of 8 recombinant human UGT isoforms. The note with it: substrate 10 μM.
Another data set addresses T2, UGT1A1 (Homo sapiens, UniProt P22309).
T2 sequence (P22309 26-533): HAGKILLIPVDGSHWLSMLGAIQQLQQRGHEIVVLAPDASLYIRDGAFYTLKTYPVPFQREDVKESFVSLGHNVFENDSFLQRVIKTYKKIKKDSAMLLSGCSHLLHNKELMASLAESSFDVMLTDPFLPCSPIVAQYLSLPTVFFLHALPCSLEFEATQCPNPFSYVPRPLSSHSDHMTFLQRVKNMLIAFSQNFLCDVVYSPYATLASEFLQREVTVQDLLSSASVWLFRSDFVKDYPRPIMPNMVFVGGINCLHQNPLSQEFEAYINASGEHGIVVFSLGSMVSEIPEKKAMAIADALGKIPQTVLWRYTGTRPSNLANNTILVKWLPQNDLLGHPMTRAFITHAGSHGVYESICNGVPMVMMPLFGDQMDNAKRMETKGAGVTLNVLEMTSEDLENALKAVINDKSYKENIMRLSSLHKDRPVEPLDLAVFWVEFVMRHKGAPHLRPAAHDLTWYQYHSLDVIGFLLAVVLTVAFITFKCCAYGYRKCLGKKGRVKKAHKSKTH
The note with it: 10 μM, pH 7.4.

In the next data set the target is T3, UGT1A7 (Homo sapiens, UniProt Q9HAW7).
T3 sequence (Q9HAW7 26-530): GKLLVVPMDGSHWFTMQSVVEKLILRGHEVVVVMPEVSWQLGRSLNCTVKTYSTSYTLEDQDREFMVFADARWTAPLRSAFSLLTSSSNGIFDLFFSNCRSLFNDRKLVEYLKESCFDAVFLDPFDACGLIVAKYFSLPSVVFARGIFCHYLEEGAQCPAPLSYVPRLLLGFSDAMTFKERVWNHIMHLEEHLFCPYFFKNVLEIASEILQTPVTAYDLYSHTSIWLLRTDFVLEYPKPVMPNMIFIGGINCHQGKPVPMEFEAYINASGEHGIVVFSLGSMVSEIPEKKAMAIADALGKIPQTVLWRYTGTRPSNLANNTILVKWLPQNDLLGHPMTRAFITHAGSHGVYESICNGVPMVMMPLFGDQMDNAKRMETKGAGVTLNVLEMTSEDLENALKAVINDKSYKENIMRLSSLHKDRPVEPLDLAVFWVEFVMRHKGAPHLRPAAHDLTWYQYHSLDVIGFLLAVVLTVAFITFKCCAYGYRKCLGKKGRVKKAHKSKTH
The note with it: 10 μM, pH 7.4.

The target in the next data set is T4, UGT1A10 (Homo sapiens, UniProt Q9HAW8).
T4 sequence (Q9HAW8 26-530): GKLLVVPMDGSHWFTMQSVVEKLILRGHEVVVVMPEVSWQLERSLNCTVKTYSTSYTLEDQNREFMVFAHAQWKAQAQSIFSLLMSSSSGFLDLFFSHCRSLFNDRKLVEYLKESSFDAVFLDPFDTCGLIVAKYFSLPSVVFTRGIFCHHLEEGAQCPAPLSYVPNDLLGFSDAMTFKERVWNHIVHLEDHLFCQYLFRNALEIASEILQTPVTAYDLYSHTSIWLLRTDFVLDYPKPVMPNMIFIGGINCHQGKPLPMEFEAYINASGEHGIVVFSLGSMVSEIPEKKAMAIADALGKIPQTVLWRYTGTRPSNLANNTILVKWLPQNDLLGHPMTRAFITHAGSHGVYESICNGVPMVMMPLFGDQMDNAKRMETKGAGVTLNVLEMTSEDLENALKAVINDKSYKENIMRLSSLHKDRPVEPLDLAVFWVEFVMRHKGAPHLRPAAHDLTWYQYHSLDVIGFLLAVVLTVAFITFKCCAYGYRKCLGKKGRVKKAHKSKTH
The note with it: 10 μM, pH 7.4.

Another data set deals with T5, UGT2B7 (Homo sapiens, UniProt P16662).
T5 sequence (P16662 24-529): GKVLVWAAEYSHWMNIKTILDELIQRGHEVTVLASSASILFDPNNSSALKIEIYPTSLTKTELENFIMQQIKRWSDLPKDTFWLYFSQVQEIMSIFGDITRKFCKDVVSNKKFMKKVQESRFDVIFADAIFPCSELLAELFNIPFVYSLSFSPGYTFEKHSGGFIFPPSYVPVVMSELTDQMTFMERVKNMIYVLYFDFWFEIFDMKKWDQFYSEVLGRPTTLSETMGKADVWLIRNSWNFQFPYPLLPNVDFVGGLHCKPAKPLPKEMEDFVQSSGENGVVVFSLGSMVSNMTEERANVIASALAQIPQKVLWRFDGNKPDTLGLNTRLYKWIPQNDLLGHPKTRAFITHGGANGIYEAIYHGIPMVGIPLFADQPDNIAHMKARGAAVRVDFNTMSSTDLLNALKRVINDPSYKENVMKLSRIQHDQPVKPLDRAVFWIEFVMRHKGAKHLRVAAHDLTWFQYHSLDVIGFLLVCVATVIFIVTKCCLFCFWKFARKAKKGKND
Conditions: 10 μM, pH 7.4.

Take `O=c1c(O)c(-c2ccc(O)cc2)oc2cc(O)cc(O)c12` [5,7,4'THFnol, 3,5,7,4’-tetrahydroxyflavone]: the “Predominant form in plasma” value in data set [1] (after oral intake in human) is reported as 3-O-glucuronide of kaempferol was found to be the predominant form in plasma. In addition, at UGT1A6, the Hydroxyl positions glucuronidated result is “glucuronidated only 7-O and 4’-O”. Also, the “Glucuronidation and regiospecificity across the 8 UGT isoforms” value in data set [2] is recorded as 5-O position was not significantly glucuronidated by any isoform.

`O=c1cc(-c2ccccc2)oc2cc(O)cc(O)c12` [5,7DHF, 5,7-dihydroxyflavone]: the Hydroxyl positions glucuronidated result at UGT1A1 was “glucuronidated 7-O position only”; at UGT1A7, “glucuronidated 7-O position only”; at UGT1A10, “glucuronidated both 7-O and 5-O positions”; at UGT2B7, “glucuronidated both 7-O and 5-O positions”. For the same compound, the Glucuronide predominantly formed entry in data set [1] (human volunteers) was “predominantly form 7-O-glucuronide”.
